Molecules are shown by their SMILES.

The target in one test is T1, recombinant His-tag Y220C p53 DBD protein (Homo sapiens, UniProt P04637, Y220C).
T1 construct: recombinant His-tag Y220C p53 DBD protein (amino acids #˜94-312)
In words: In vitro DNA binding activity assay (TR-FRET): binding of His-tag Y220C p53 DBD to biotin-labeled consensus DNA. In kind it is biochemical. As to conditions: SC150 = concentration to increase DNA binding by […], His-tag Y220C p53 DBD, biotin-labeled consensus DNA.
`CN1CC[C@@H](Nc2cccc3c2cc(-c2noc(CNC(=O)c4cccc(C(C)(C)O)c4)n2)n3CC(F)(F)F)[C@@H](F)C1` [Compound 549B, N-{[3-(4-{[(3S,4R)-3-fluoro-1-methylpiperidin-4-yl]amino}-1-(2,2,2-trifluoroethyl)-1H-indol-2-yl)-1,2,4-oxadiazol-5-yl]methyl}-3-(2-hydroxypropan-2-yl)benzamide]: the “Y220C SC150 (μM)” value is reported as “* (* = 0 μM ≤ SC150 < 0.1 μM)”.

For the compound `CN1CC[C@@H](Nc2cccc3c2cc(-c2noc(CNC(=O)c4ccn(C(C)(C)CO)c4)n2)n3CC(F)(F)F)[C@@H](F)C1` [Compound 441B], the “Y220C SC150 (μM)” value is “* (* = 0 μM ≤ SC150 < 0.1 μM)”.

With `CC(C)N1CC[C@@H](Nc2cccc3c2cc(-c2noc(CNC(=O)c4ccn(C(C)(C)C)c4)n2)n3CC(F)(F)F)[C@@H](F)C1` [Compound 317B, 1-tert-butyl-N-{[3-(4-{[(3S,4R)-3-fluoro-1-(propan-2-yl)piperidin-4-yl]amino}-1-(2,2,2-trifluoroethyl)-1H-indol-2-yl)-1,2,4-oxadiazol-5-yl]methyl}-1H-pyrrole-3-carboxamide], the “Y220C SC150 (μM)” value is on record as “* (* = 0 μM ≤ SC150 < 0.1 μM)”.

Consider `CCCC(=O)NCc1nnc(-c2cc3c(NC4CCN(C)CC4)cccc3n2CC(F)(F)F)s1` [Compound 65B, N-[(5-{4-[(1-methylpiperidin-4-yl)amino]-1-(2,2,2-trifluoroethyl)-1H-indol-2-yl}-1,3,4-thiadiazol-2-yl)methyl]butanamide], for which the “Y220C SC150 (μM)” value is “** (** = 0.1 μM ≤ SC150 < 0.5 μM)”.

Regarding `CN1CC[C@@H](Nc2cccc3c2cc(-c2noc(CNC(=O)c4csc(N5CCOCC5)n4)n2)n3CC(F)(F)F)[C@@H](F)C1` [Compound 465B, N-{[3-(4-{[(3S,4R)-3-fluoro-1-methylpiperidin-4-yl]amino}-1-(2,2,2-trifluoroethyl)-1H-indol-2-yl)-1,2,4-oxadiazol-5-yl]methyl}-2-(morpholin-4-yl)-1,3-thiazole-4-carboxamide], the “Y220C SC150 (μM)” value is reported as “* (* = 0 μM ≤ SC150 < 0.1 μM)”.

Regarding `CN1CC[C@@H](Nc2cccc3c2cc(-c2noc(CNC(=O)c4cnn(C5CC5)c4)n2)n3CC(F)(F)F)[C@@H](F)C1` [Compound 296B, 1-cyclopropyl-N-{[3-(4-{[(3S,4R)-3-fluoro-1-methylpiperidin-4-yl]amino}-1-(2,2,2-trifluoroethyl)-1H-indol-2-yl)-1,2,4-oxadiazol-5-yl]methyl}-1H-pyrazole-4-carboxamide], the “Y220C SC150 (μM)” value is reported as “* (* = 0 μM ≤ SC150 < 0.1 μM)”.

`O=C(NCc1nc(-c2cc3c(NC4CCNC4)cccc3n2CC(F)(F)F)no1)C1CC1` (racemic) [Compound 167B, (+/−)-N-[(3-{4-[(pyrrolidin-3-yl)amino]-1-(2,2,2-trifluoroethyl)-1H-indol-2-yl}-1,2,4-oxadiazol-5-yl)methyl]cyclopropanecarboxamide]: the “Y220C SC150 (μM)” value is recorded as “* (* = 0 μM ≤ SC150 < 0.1 μM)”.

With `COC[C@H]1CCCN1c1nc(C(=O)NCc2nc(-c3cc4c(N[C@@H]5CCN(C)C[C@@H]5F)cccc4n3CC(F)(F)F)no2)cs1` [Compound 520B, N-{[3-(4-{[(3S,4R)-3-fluoro-1-methylpiperidin-4-yl]amino}-1-(2,2,2-trifluoroethyl)-1H-indol-2-yl)-1,2,4-oxadiazol-5-yl]methyl}-2-[(2R)-2-(methoxymethyl)pyrrolidin-1-yl]-1,3-thiazole-4-carboxamide], the “Y220C SC150 (μM)” value is reported as “* (* = 0 μM ≤ SC150 < 0.1 μM)”.

As to `COCC1(c2ccc(C(=O)NCc3nc(-c4cc5c(N[C@@H]6CCNC[C@@H]6F)cccc5n4CC(F)(F)F)no3)s2)CC1` [Compound 503B, N-{[3-(4-{[(3S,4R)-3-fluoropiperidin-4-yl]amino}-1-(2,2,2-trifluoroethyl)-1H-indol-2-yl)-1,2,4-oxadiazol-5-yl]methyl)-5-[1-(methoxymethyl)cyclopropyl]thiophene-2-carboxamide], the “Y220C SC150 (μM)” value is “* (* = 0 μM ≤ SC150 < 0.1 μM)”.

As for `CN1CC[C@@H](Nc2cccc3c2cc(-c2nc(CNC(=O)c4ccccc4)cs2)n3CC(F)(F)F)[C@@H](F)C1` (racemic) [Compound 90B, N-{[2-(4-{[(3S,4R)-3-fluoro-1-methylpiperidin-4-yl]amino}-1-(2,2,2-trifluoroethyl)-1H-indol-2-yl)-1,3-thiazol-4-yl]methyl}benzamide], the “Y220C SC150 (μM)” value is listed as “**** (**** = 1 μM ≤ SC150 < 10 μM)”.

In the case of `CN1CC[C@@H](Nc2cccc3c2cc(-c2noc(CNC(=O)c4ccn(C5CC5)c4)n2)n3CC(F)(F)F)[C@@H](F)C1` [Compound 218B, 1-cyclopropyl-N-{[3-(4-{[(3S,4R)-3-fluoro-1-methylpiperidin-4-yl]amino}-1-(2,2,2-trifluoroethyl)-1H-indol-2-yl)-1,2,4-oxadiazol-5-yl]methyl}-1H-pyrrole-3-carboxamide], the “Y220C SC150 (μM)” value is “* (* = 0 μM ≤ SC150 < 0.1 μM)”.

Consider `CN1CC[C@@H](Nc2cccc3c2cc(-c2noc(CNC(=O)c4ccc(C5(C)CC5)s4)n2)n3CC(F)(F)F)[C@@H](F)C1` [Compound 446B], for which the “Y220C SC150 (μM)” value is given as “* (* = 0 μM ≤ SC150 < 0.1 μM)”.

Turning to `CNc1cc(-c2cc3c(NC4CCN(C)CC4)cccc3n2CC(F)(F)F)n[nH]1` [Compound 23B, 2-[5-(methylamino)-1H-pyrazol-3-yl]-N-(1-methylpiperidin-4-yl)-1-(2,2,2-trifluoroethyl)-1H-indol-4-amine], the “Y220C SC150 (μM)” value is “**** (**** = 1 μM ≤ SC150 < 10 μM)”.

Take `CN1CCC(Nc2cccc3c2cc(-c2nc(CNc4ccc(S(C)(=O)=O)cc4)no2)n3CC(F)(F)F)CC1` [Compound 136B, N-(1-methylpiperidin-4-yl)-2-(3-(((4-(methylsulfonyl)phenyl)amino)methyl)-1,2,4-oxadiazol-5-yl)-1-(2,2,2-trifluoroethyl)-1H-indol-4-amine]: the “Y220C SC150 (μM)” value is given as “* (* = 0 μM ≤ SC150 < 0.1 μM)”.

Take `COCC(C)(C)n1cc(C(=O)NCc2nc(-c3cc4c(N[C@@H]5CCN(C)C[C@@H]5F)cccc4n3CC(F)(F)F)no2)cn1` [Compound 391B, N-{[3-(4-{[(3S,4R)-3-fluoro-1-methylpiperidin-4-yl]amino}-1-(2,2,2-trifluoroethyl)-1H-indol-2-yl)-1,2,4-oxadiazol-5-yl]methyl}-1-(1-methoxy-2-methylpropan-2-yl)-1H-pyrazole-4-carboxamide]: the “Y220C SC150 (μM)” value was “* (* = 0 μM ≤ SC150 < 0.1 μM)”.

In the case of `CN1CC[C@@H](Nc2cccc3c2cc(-c2noc(CNC(=O)c4csc(C(C)(C)C)n4)n2)n3CC(F)(F)F)[C@@H](F)C1` [Compound 438B, 2-tert-butyl-N-{[3-(4-{[(3S,4R)-3-fluoro-1-methylpiperidin-4-yl]amino}-1-(2,2,2-trifluoroethyl)-1H-indol-2-yl)-1,2,4-oxadiazol-5-yl]methyl}-1,3-thiazole-4-carboxamide], the “Y220C SC150 (μM)” value was “* (* = 0 μM ≤ SC150 < 0.1 μM)”.

As to `CN1CC[C@@H](Nc2cccc3c2cc(-c2noc(CNC(=O)c4cn(C5CC5)cn4)n2)n3CC(F)(F)F)[C@@H](F)C1` [Compound 327B, 1-cyclopropyl-N-{[3-(4-{[(3S,4R)-3-fluoro-1-methylpiperidin-4-yl]amino}-1-(2,2,2-trifluoroethyl)-1H-indol-2-yl)-1,2,4-oxadiazol-5-yl]methyl}-1H-imidazole-4-carboxamide], the “Y220C SC150 (μM)” value is “* (* = 0 μM ≤ SC150 < 0.1 μM)”.

As for `COCC(C)(C)n1cc(C(=O)NCc2nc(-c3cc4c(N[C@H]5CCN(C(C)(C)C)C[C@H]5F)cccc4n3CC(F)(F)F)no2)cn1` [Compound 413B, N-{[3-(4-{[(3R,4S)-1-tert-butyl-3-fluoropiperidin-4-yl]amino}-1-(2,2,2-trifluoroethyl)-1H-indol-2-yl)-1,2,4-oxadiazol-5-yl]methyl}-1-(1-methoxy-2-methylpropan-2-yl)-1H-pyrazole-4-carboxamide], the “Y220C SC150 (μM)” value is recorded as “* (* = 0 μM ≤ SC150 < 0.1 μM)”.

As to `CN1CCC(Nc2cccc3c2cc(-c2noc(CNC(=O)c4ccn(C)n4)n2)n3CC(F)(F)F)CC1` [Compound 155B, 1-methyl-N-[(3-{4-[(1-methylpiperidin-4-yl)amino]-1-(2,2,2-trifluoroethyl)-1H-indol-2-yl}-1,2,4-oxadiazol-5-yl)methyl]-1H-pyrazole-3-carboxamide], the “Y220C SC150 (μM)” value is given as “* (* = 0 μM ≤ SC150 < 0.1 μM)”.

`CC(O)Cn1ccc(C(=O)NCc2nc(-c3cc4c(N[C@@H]5CCN(C)C[C@@H]5F)cccc4n3CC(F)(F)F)no2)c1` (stereo partly drawn) [Compound 244B, N-{[3-(4-{[(3S,4R)-3-fluoro-1-methylpiperidin-4-yl]amino}-1-(2,2,2-trifluoroethyl)-1H-indol-2-yl)-1,2,4-oxadiazol-5-yl]methyl}-1-(2-hydroxypropyl)-1H-pyrrole-3-carboxamide]: the “Y220C SC150 (μM)” value is recorded as “* (* = 0 μM ≤ SC150 < 0.1 μM)”.

For the compound `CN1CC[C@@H](Nc2cccc3c2cc(-c2noc(CNC(=O)c4cccnc4)n2)n3CC(F)(F)F)[C@@H](F)C1` [Compound 202B, N-{[3-(4-{[(3S,4R)-3-fluoro-1-methylpiperidin-4-yl]amino}-1-(2,2,2-trifluoroethyl)-1H-indol-2-yl)-1,2,4-oxadiazol-5-yl]methyl}pyridine-3-carboxamide], the “Y220C SC150 (μM)” value was “* (* = 0 μM ≤ SC150 < 0.1 μM)”.

Still in this test, the particulars now being: concentration to increase DNA binding by […], incubated at either 27° C. or 29° C. for 60 min.
Turning to `FC(F)(F)Cn1c(-c2ccc(CNc3cccc(Cl)c3)cc2)cc2c(NC3CCN(C4CCOCC4)CC3)cccc21` [Compound 34A, 2-(4-{[(3-chlorophenyl)amino]methyl}phenyl)-N-[1-(oxan-4-yl)piperidin-4-yl]-1-(2,2,2-trifluoroethyl)-1H-indol-4-amine], the “SC150 (μM)” value is listed as “++++ (++++ = 10 μM ≤ SC150 < 35 μM)”.

Turning to `CNC(=O)c1ccc(-c2cc3c(NC4CCS(=O)(=O)CC4)cccc3n2CC(F)(F)F)cc1` [Compound 5A, 4-{4-[(1,1-dioxo-1λ^6-thian-4-yl)amino]-1-(2,2,2-trifluoroethyl)-1H-indol-2-yl}-N-methylbenzamide], the “SC150 (μM)” value is given as “++++ (++++ = 10 μM ≤ SC150 < 35 μM)”.

For `COCC(O)CN1CCC(Nc2cccc3c2cc(-c2cccc(NC(C)=O)c2)n3CC(F)(F)F)CC1` (stereo not drawn) [Compound 51A, N-[3-(4-{[1-(2-hydroxy-3-methoxypropyl)piperidin-4-yl]amino}-1-(2,2,2-trifluoroethyl)-1H-indol-2-yl)phenyl]acetamide], the “SC150 (μM)” value was “++++ (++++ = 10 μM ≤ SC150 < 35 μM)”.

The values above are taken from patent US11807644B2 (PMV Pharmaceuticals, Inc., priority 2020, dated 2023).
